Values quoted from earlier work, collected in PMC9516332 (Frontiers in Oncology, 2022).
Read-outs that look alike come from different tables or passages of the source.

Columns and labels:
Settings in all cases: cited from earlier work
[1] = target: panel of 255 wild-type kinases (Homo sapiens, UniProt O60674)
[2] = target: panel of 255 wild-type kinases (Homo sapiens, UniProt O75116)
[3] = target: panel of 255 wild-type kinases (Homo sapiens, UniProt P12931)
[4] = target: panel of 255 wild-type kinases (Homo sapiens, UniProt P16591)
[5] = target: panel of 255 wild-type kinases (Homo sapiens, UniProt P17252)
[6] = target: T1, panel of 255 wild-type kinases (Homo sapiens, UniProt P30530)
T1 sequence (P30530 26-894): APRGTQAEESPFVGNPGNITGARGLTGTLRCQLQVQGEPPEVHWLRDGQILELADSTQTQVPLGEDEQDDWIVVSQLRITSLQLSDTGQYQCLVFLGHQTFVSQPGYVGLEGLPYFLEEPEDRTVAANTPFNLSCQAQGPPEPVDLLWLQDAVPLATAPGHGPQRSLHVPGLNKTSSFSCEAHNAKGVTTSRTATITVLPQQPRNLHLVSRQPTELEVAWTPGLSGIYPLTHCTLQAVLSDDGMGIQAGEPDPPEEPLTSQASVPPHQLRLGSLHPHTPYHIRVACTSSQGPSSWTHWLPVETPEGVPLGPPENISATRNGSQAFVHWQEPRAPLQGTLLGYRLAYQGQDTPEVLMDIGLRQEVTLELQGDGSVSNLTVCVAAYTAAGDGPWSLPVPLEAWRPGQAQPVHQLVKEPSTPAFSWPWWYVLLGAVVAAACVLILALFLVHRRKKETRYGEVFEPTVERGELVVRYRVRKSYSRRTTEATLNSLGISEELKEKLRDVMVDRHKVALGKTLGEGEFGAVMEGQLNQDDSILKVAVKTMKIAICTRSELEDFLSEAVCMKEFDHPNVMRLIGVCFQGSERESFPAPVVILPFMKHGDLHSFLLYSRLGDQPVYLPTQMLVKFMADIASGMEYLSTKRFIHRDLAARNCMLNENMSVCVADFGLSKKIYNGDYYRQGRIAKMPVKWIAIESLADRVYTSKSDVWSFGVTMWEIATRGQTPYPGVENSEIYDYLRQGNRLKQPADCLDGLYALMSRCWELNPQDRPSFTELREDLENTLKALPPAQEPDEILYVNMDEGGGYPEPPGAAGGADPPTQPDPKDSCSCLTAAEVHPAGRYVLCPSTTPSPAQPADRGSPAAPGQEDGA

[7] = target: panel of 255 wild-type kinases (Homo sapiens, UniProt P41240)
[8] = target: panel of 255 wild-type kinases (Homo sapiens, UniProt P50750)
[9] = target: panel of 255 wild-type kinases (Homo sapiens, UniProt Q13555)
[10] = target: T2, panel of 255 wild-type kinases (Homo sapiens, UniProt Q9HBY8)
T2 sequence (Q9HBY8 1-367): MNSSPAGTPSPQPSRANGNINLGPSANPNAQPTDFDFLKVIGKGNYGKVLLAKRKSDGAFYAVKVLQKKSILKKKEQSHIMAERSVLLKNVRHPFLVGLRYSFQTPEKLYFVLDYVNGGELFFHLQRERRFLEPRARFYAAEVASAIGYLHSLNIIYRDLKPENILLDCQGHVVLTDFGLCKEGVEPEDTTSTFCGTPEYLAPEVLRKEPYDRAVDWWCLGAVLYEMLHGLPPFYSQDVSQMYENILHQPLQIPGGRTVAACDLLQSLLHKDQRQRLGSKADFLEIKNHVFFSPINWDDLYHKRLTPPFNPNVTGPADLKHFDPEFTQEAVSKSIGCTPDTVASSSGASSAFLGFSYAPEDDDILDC

[11] = kinase JAK2, 1 µmol/L single concentration, ref DOI: 10.1158/1535-7163.MCT-18-0877
[12] = kinase ROCK2, 1 µmol/L single concentration, ref DOI: 10.1158/1535-7163.MCT-18-0877
[13] = kinase SRC, 1 µmol/L single concentration, ref DOI: 10.1158/1535-7163.MCT-18-0877
[14] = kinase FER, 1 µmol/L single concentration, ref DOI: 10.1158/1535-7163.MCT-18-0877
[15] = kinase PKCα, 1 µmol/L single concentration, ref DOI: 10.1158/1535-7163.MCT-18-0877
[16] = AXL kinase assay, 1 µmol/L single concentration, ref DOI: 10.1158/1535-7163.MCT-18-0877
[17] = kinase CSK, 1 µmol/L single concentration, ref DOI: 10.1158/1535-7163.MCT-18-0877
[18] = CDK9/CycT1 kinase assay, 1 µmol/L single concentration, ref DOI: 10.1158/1535-7163.MCT-18-0877
[19] = CaMK2γ kinase assay, 1 µmol/L single concentration, ref DOI: 10.1158/1535-7163.MCT-18-0877
[20] = kinase SGK2, 1 µmol/L single concentration, ref DOI: 10.1158/1535-7163.MCT-18-0877
[21] = kinase ROCK2, 1 µmol/L single concentration, ref DOI: 10.1371/journal.pone.0092146
[22] = kinase FER, 1 µmol/L single concentration, ref DOI: 10.1371/journal.pone.0092146
[23] = kinase CSK, 1 µmol/L single concentration, ref DOI: 10.1371/journal.pone.0092146
[24] = CaMK2γ kinase assay, 1 µmol/L single concentration, ref DOI: 10.1371/journal.pone.0092146
[25] = kinase SGK2, 1 µmol/L single concentration, ref DOI: 10.1371/journal.pone.0092146

| SMILES | %-inhibition at 1 µmol/L, JAK2 [1, 11] [%] | %-inhibition at 1 µmol/L, ROCK2 [2, 12] [%] | %-inhibition at 1 µmol/L, SRC [3, 13] [%] | %-inhibition at 1 µmol/L, FER [4, 14] [%] | %-inhibition at 1 µmol/L, PKCα [5, 15] [%] | %-inhibition AXL [6, 16] [%] | %-inhibition at 1 µmol/L, CSK [7, 17] [%] | %-inhibition CDK9/CycT1 [8, 18] [%] | %-inhibition CaMK2γ [9, 19] [%] | %-inhibition at 1 µmol/L, SGK2 [10, 20] [%] | further results |
| --- | --- | --- | --- | --- | --- | --- | --- | --- | --- | --- | --- |
| CC#CC(=O)N1CCC[C@H]1c1nc(-c2ccc(C(=O)Nc3ccccn3)cc2)c2c(N)nccn12 [acalabrutinib] | -9 | -2.29 | 10 | -2.54 | -17 | -0.457 | 7 | 15 | -1.85 | -19 | – |
| CCc1cc2c(cc1N1CCC(N3CCOCC3)CC1)C(C)(C)c1[nH]c3cc(C#N)ccc3c1C2=O [alectinib] | -3 | 4.54 | 10 | 66 | 1.48 | 59 | 6 | -0.0188 | 6 | -5 | – |
| COc1cc(N2CCC(N3CCN(C)CC3)CC2)ccc1Nc1ncc(Cl)c(Nc2ccccc2P(C)(C)=O)n1 [brigatinib] | – | – | – | – | – | – | – | – | – | – | %-inhibition at 1 µmol/L, JAK2 [1]: 90%; %-inhibition at 1 µmol/L, ROCK2 [2]: 30%; %-inhibition at 1 µmol/L, SRC [3]: 65%; %-inhibition at 1 µmol/L, FER [4]: 102%; %-inhibition at 1 µmol/L, PKCα [5]: 15%; %-inhibition AXL [6]: 97%; %-inhibition at 1 µmol/L, CSK [7]: 9%; %-inhibition CDK9/CycT1 [8]: 5.35%; %-inhibition CaMK2γ [9]: 96%; %-inhibition at 1 µmol/L, SGK2 [10]: -8% |
| Cc1cc(Nc2ncc(Cl)c(Nc3ccccc3S(=O)(=O)C(C)C)n2)c(OC(C)C)cc1C1CCNCC1 [ceritinib] | -5.35 | – | 9 | 100 | -9 | 56 | 3 | 0.194 | 32 | -5.59 | – |
| O=C(c1ccc(F)c(F)c1Nc1ccc(I)cc1F)N1CC(O)([C@@H]2CCCCN2)C1 [cobimetinib] | 1.2 | 3.55 | 6.45 | 4 | 1.54 | 3 | 5.62 | 1.36 | -2.31 | 7 | – |
| C[C@@H](Oc1cc(-c2cnn(C3CCNCC3)c2)cnc1N)c1c(Cl)ccc(F)c1Cl [crizotinib] | – | – | – | – | – | – | – | – | – | – | %-inhibition at 1 µmol/L, JAK2 ([1]; kinase JAK2, 1 µmol/L single concentration, ref DOI: 10.1371/journal.pone.0092146): 98%; %-inhibition at 1 µmol/L, ROCK2 [2, 21]: 4.25%; %-inhibition at 1 µmol/L, FER [4, 22]: 90%; %-inhibition at 1 µmol/L, PKCα ([5]; kinase PKCα, 1 µmol/L single concentration, ref DOI: 10.1371/journal.pone.0092146): -8.47%; %-inhibition at 1 µmol/L, CSK [7, 23]: 9%; %-inhibition CDK9/CycT1 ([8]; CDK9/CycT1 kinase assay, 1 µmol/L single concentration, ref DOI: 10.1371/journal.pone.0092146): 5%; %-inhibition CaMK2γ [9, 24]: -10%; %-inhibition at 1 µmol/L, SGK2 [10, 25]: -2.31% |
| CC(C)(C)c1nc(-c2cccc(NS(=O)(=O)c3c(F)cccc3F)c2F)c(-c2ccnc(N)n2)s1 [dabrafenib] | – | – | – | – | – | – | – | – | – | – | %-inhibition at 1 µmol/L, ROCK2 [2, 21]: 14%; %-inhibition at 1 µmol/L, SRC ([3]; kinase SRC, 1 µmol/L single concentration, ref DOI: 10.1371/journal.pone.0092146): 68%; %-inhibition at 1 µmol/L, FER [4, 22]: 22%; %-inhibition AXL ([6]; AXL kinase assay, 1 µmol/L single concentration, ref DOI: 10.1371/journal.pone.0092146): 30%; %-inhibition at 1 µmol/L, CSK [7, 23]: 98%; %-inhibition CaMK2γ [9, 24]: -5.47%; %-inhibition at 1 µmol/L, SGK2 [10, 25]: -7.58% |
| C=CC(=O)N1CCC[C@@H](n2nc(-c3ccc(Oc4ccccc4)cc3)c3c(N)ncnc32)C1 [ibrutinib] | 0.407 | 3.74 | – | – | 0.745 | 9 | – | – | -1.83 | – | – |
| CO[C@@H]1[C@H](N(C)C(=O)c2ccccc2)C[C@H]2O[C@]1(C)n1c3ccccc3c3c4c(c5c6ccccc6n2c5c31)C(=O)NC4 [midostaurin] | 99 | 38 | 79 | 101 | 92 | 87 | 58 | 49 | – | -0.775 | – |
| C=CC(=O)Nc1cc(Nc2nccc(-c3cn(C)c4ccccc34)n2)c(OC)cc1N(C)CCN(C)C [osimertinib] | 4 | 6.54 | 9 | 78 | 11 | 43 | 9 | 0.721 | 4.25 | 26 | – |
